Experimental data from US12509465B2, “Benzoimidazole derivatives as anticancer agents” (CENTRE LEON BERARD, priority 2016, dated 2025).

Columns and labels:
[1] = molecular target: Myd88-ERK1 (Homo sapiens (Human), UniProt P27361); assay: HTRF assay of MyD88-ERK1 interaction; type: binding; conditions: 6xHis-ERK1 7.5 nM, biotin-MyD88peptide 25 nM; read-out: IC50* (μM) on Myd88-ERK1 in HRTF Assay
Source text: (§1) [drawing 67] 2-(4-dimethylamino-phenyl)-1H-benzoimidazole-5-carboxylic acid (3-chloro-phenyl)-amide was synthesized from 2-(4-dimethylamino-phenyl)-1H-benzoimidazole-5-carboxylic acid and 3-chloro-phenylamine by following the procedure for example 1. ^1H NMR (400 MHz, DMSO-d6) δ 12.90 (s, 1H), 10.37 (s, 1H), 8.17 (s, 1H), 8.08-7.98 (m, 3H), 7.82-7.73 (m, 2H), 7.61 (d, J=8.3 Hz, 1H), 7.39 (t, J=8.1 Hz, 1H), 7.15 (ddd, J=8.0, 2.1, 0.9 Hz, 1H), 6.91-6.81 (m, 2H), 3.02 (s, 6H). MS m/z (M+H) 390.9. 2/Biological Activity 2-1/In Vitro Determination of Compound Activity by HRTF Assay Principle: In the experiment, recombinant Erk1 and Erk2, tagged with a polyhistidine stretch in their N-terminal part were used. To reproduce the interaction between ERK1/2 and Myd88, a peptide corresponding to amino acids 24-40 of Myd88 was used: biotin-Ahx-[…] with Ahx being aminohexanoic acid as a spacer (biotin-MyD88peptide). This peptide encompassed the interaction motif of Myd88 with the CD domain of ERK1/2. To perform the HTRF assay this peptide was N-terminally labelled with biotin. To detect the interaction between the peptide and Erk1 or Erk2 the following components were used: an antibody directed against the His-tag, labelled with the donor fluorophore (Europium cryptate); The streptavidine protein, labelled with the acceptor XL665 fluorophore directed against the biotin. All the components except Erk1, Erk2 and the peptide were purchased from Cisbio (Condolet, France).
(§2) Homogeneous Time Resolved Fluorescence (HTRF) assay combines two techniques: Fluorescence Resonance Energy Transfer (FRET) and Time Resolved (TR) measurement. In TR-FRET, a transfer of fluorescence between a donor and an acceptor molecule generates a signal that can then be measured. This energy transfer is only possible when both fluorophores are close enough to each other. Therefore, this method can be used to detect protein-protein interaction.
For MyD88-ERK1 interaction the reaction medium contained: 6xHis-ERK1 at 7.5 nM, biotin-MyD88peptide at 25 nM, anti-Histidine-Cryptate antibody at 1.3325 nM and XL665 labeled-Streptavidine at 3.125 nM.
(§3) Concentrations of compounds to be tested ranged from 0.1 μM to 100 μM. Stock solutions of compounds according to the invention were prepared at 10 mM in DMSO. […] The plate was incubated at room temperature for 2 hours and fluorescence was measured using a TECAN Infinite F500 Reader®.
(§4) Results are calculated as the variation of fluorescence (Delta F) between control and samples. Delta F was calculated using the following equation: [(Ratio sample-Ratio of the arithmetic mean of the control)/Ratio of the arithmetic mean of the control]×100 where ratio=(Acceptor fluorescence/Donor fluorescence)×10000. […]

[2] = molecular target: Myd88-ERK2 (Homo sapiens (Human), UniProt P28482); assay: HTRF assay of MyD88-ERK2 interaction; type: binding; conditions: GST-ERK2 50 nM, biotin-MyD88pep 50 nM; read-out: IC50* (μM) on Myd88-ERK2 in HRTF Assay
Source text: as §1, §2
For MyD88-ERK2 interaction the reaction medium contained: GST-ERK2 at 50 nM, biotin-MyD88pep at 50 nM, anti-GST-Cryptate antibody at 0.8 nM and XL665 labeled-Streptavidine at 12.5 nM.
as §3, §4

[3] = test system: ERK1/2; assay: Cell-based assay, SRE luciferase reporter in HCT116 p53+/+ cells; conditions: Homo sapiens, HCT-116, 2 hours pretreatment, 10% FCS stimulation
Source text: The terms “SRE promoter” refer to “Serum response elements”, which is a DNA sequence (CC(A/T)6GG) that is used upstream of reporter genes and is known to be the binding site of the SRF (Serum response factor) proteins encoded by SRF gene identified by Gene Bank number (Gene ID: 6722, NM_003131.2). To determine the activity of the compounds on ERK1/2, Human Colon Tumor (HCT116) p53+/+ cell line stably transformed to express the luciferase reporter gene under the control of the serum response element (SRE) was used. This cell line was cultured in McCoy's medium supplemented with 10% FBS, 2 mM glutamine, 1% antibiotics and 1 μM of puromycin.
HCT116 p53+/+ SRE luciferase cells were plated in 96-well flat-bottom plate at 20,000/well and incubated at 37° C. for 36 hours. The medium was discarded and replaced by 100 μl of serum free medium for 16 hours. Cells were then pretreated for 2 hours with the compounds according to the invention at various concentrations (from 0.001 μM to 80 μM). Cells were then stimulated by addition of 10% FCS and incubated at 37° C. for four additional hours and the expression of reporter gene was assessed using the One-Glo Luciferase reagent (Promega). Luminescence was quantified after 5 minutes in a TECAN infinite M200 Reader (Männedorf, Switzerland). The results are presented below at paragraph 2-5.

[4] = test system: HCT116 cells; assay: Apoptosis assay (Caspase-Glo 3/7); type: cell-based, Human; conditions: HCT116 p53+/+ cells, 16 h treatment, DMSO treated cells as control
Method: Cellular apoptosis was measured using the Caspase-Glo® 3/7 assay kit (Promega). To perform this study, HCT116 p53+/+ cells were seeded at a density of 7,000 cell/well in 96-half wells plate and maintained 24 h at 37° C. in McCoy's medium supplemented with 2 mM glutamine, 1% penicillin, 1% of streptomycin and 10% FBS. Cells were then treated with the compounds at various concentrations ranging from 1 μM to 100 μM depending on the compound. The DMSO concentration was normalized at 1% in each well and the cells were incubated for 16 h. Caspase 3/7 activity was monitored using caspase-Glo 3/7 kit according to the manufacturer instructions. Briefly, 50 μL of Caspase-Glo® 3/7 reagent was added in each well and the plates were gently agitated for 30 s and let at room temperature for an additional hour. Luminescence was then measured in a TECAN infinite 200 microplate reader. Results are expressed as the fold induction of caspase 3/7 activation using DMSO treated cells as control. The results are presented on FIGS. 1 to 3.

Chain of Myd88-ERK2 (P28482 whole entry): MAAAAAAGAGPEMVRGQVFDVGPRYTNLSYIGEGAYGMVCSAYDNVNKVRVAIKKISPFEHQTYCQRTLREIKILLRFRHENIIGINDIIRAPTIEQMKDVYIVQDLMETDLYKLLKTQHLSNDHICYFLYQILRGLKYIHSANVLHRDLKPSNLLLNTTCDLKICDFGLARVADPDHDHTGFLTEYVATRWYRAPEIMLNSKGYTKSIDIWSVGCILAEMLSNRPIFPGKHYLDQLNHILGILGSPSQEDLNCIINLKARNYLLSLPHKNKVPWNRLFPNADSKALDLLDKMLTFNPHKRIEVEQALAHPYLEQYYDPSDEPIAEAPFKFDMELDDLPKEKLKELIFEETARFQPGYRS
Chain of Myd88-ERK1 (P27361 whole entry): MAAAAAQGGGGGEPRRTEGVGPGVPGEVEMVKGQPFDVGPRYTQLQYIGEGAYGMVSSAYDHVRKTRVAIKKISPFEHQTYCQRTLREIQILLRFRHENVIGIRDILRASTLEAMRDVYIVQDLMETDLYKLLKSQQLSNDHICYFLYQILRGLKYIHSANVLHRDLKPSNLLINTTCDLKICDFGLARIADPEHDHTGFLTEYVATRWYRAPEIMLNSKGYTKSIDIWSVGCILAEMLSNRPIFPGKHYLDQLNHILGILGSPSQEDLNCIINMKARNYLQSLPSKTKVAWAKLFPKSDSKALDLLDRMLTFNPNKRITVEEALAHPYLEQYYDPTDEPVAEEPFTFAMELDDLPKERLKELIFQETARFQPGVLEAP

Row | Compound | IC50 [1] [µM] | IC50 [2] [µM] | IC50 [3] [µM] | induction of apoptosis (fold induction of caspase 3/7 activity) [4]
1 | CN(C)c1ccc(-c2nc3cc(NC(=O)c4ccccc4)ccc3[nH]2)cc1 [Comp. ex., reference compound] | > 50 | > 50 | > 50 | –
2 | CN(C)c1ccc(-c2nc3cc(C(=O)Nc4ccncc4)ccc3[nH]2)cc1 [Compound 2, 2-(4-Dimethylamino-phenyl)-1H-benzoimidazole-5-carboxylic acid pyridin-4-ylamide] | 8 | 11.8 | 0.32 | induction of apoptosis
3 | COc1ccc(NC(=O)c2ccc3[nH]c(-c4ccc(N(C)C)cc4)nc3c2)cn1 [Compound 6, 2-(4-Dimethylamino-phenyl)-1H-benzoimidazole-5-carboxylic acid (6-methoxy-pyridin-3-yl)-amide] | 4.44 | 2.34 | 0.48 | induction of apoptosis
4 | CCc1ccc(NC(=O)c2ccc3[nH]c(-c4ccc(N(C)C)cc4)nc3c2)cn1 [Compound 7, 2-(4-Dimethylamino-phenyl)-1H-benzoimidazole-5-carboxylic acid (6-ethylpyridin-3-yl)-amide] | 6.15 | 25.5 | 0.79 | induction of apoptosis
